The results in this text go back to patent US20050154042A1, “N-alkyl pyrroles as HMG-CoA reductase inhibitors” (priority 2003, published 2005).

Structures can show the parent of a compound that is named as a salt.

Turning to `CC(C)n1c(CC[C@@H](O)C[C@@H](O)CC(=O)[O-])c(-c2ccc(F)cc2)c(-c2ccccc2)c1C(=O)N(c1ccccn1)c1ccccn1.[Na+]` [Example 123, (3R,5R)-7-[5-(Di-pyridin-2-yl-carbamoyl)-3-(4-fluoro-phenyl)-1-isopropyl-4-phenyl-1H-pyrrol-2-yl]-3,5-dihydroxy-heptanoic Acid Sodium Salt], the melting point (as a rule, the temperature, or range, at which the solid turns liquid) was 223 to 225 °C (dec.).
In turn, `CC(C)n1c(CC[C@@H](O)C[C@@H](O)CC(=O)[O-])c(-c2ccc(F)cc2)c(-c2ccccc2)c1C(=O)NCc1ccc(C#N)cc1.[Na+]` [Example 144, (3R,5R)-7-[5-(4-Cyano-benzylcarbamoyl)-3-(4-fluoro-phenyl)-1-isopropyl-4-phenyl-1H-pyrrol-2-yl]-3,5-dihydroxy-heptanoic Acid Sodium Salt] came in with a melting point of 178 to 180 °C.
`Cc1c[nH]c(CNC(=O)c2c(-c3ccccc3)c(-c3ccc(F)cc3)c(CC[C@@H](O)C[C@@H](O)CC(=O)O)n2C(C)C)n1` (as salt: sodium) [Example 95]: the melting point is 213 to 215 °C (dec.).
Next, `CC(C)n1c(/C=C/[C@@H](O)C[C@@H](O)CC(=O)O)c(-c2ccc(F)cc2)c(-c2ccccc2)c1C(=O)NCc1ccc(F)cc1` (as salt: sodium) [Example 10, (3R,5S)-7-[5-(4-Fluoro-benzylcarbamoyl)-3-(4-fluoro-phenyl)-1-isopropyl-4-phenyl-1H-pyrrol-2-yl]-3,5-dihydroxy-hept-6-enoic Acid Sodium Salt]: 221 to 223 °C.
`CC(C)n1c(CC[C@@H](O)C[C@@H](O)CC(=O)[O-])c(-c2ccc(F)cc2)c(-c2ccc(F)cc2)c1C(=O)Nc1ccccn1.[Na+]` [Example 120, (3R,5R)-7-[3,4-Bis-(4-fluoro-phenyl)-1-isopropyl-5-(pyridin-2-ylcarbamoyl)-1H-pyrrol-2-yl]-3,5-dihydroxy-heptanoic Acid Sodium Salt]: the melting point was 217 to 219 °C (dec.).
Next, `COc1cccc(NC(=O)c2c(-c3ccc(F)cc3)c(-c3ccc(F)cc3)c(/C=C/[C@@H](O)C[C@@H](O)CC(=O)[O-])n2C(C)C)c1.[Na+]` [Example 137, (3R,5 S)-7-[3,4-Bis-(4-fluoro-phenyl)-1-isopropyl-5-(3-methoxy-phenylcarbamoyl)-1H-pyrrol-2-yl]-3,5-dihydroxy-hept-6-enoic Acid Sodium Salt]: 225 to 227 °C.
Next, `CC(C)n1c(/C=C/[C@@H](O)C[C@@H](O)CC(=O)[O-])c(-c2ccc(F)cc2)c(-c2ccccc2)c1C(=O)Nc1ccccc1.[Na+]` [Example 2, (3R,5S)-7-[3-(4-Fluoro-phenyl)-1-isopropyl-4-phenyl-5-phenylcarbamoyl-1H-pyrrol-2-yl]-3,5-dihydroxy-hept-6-enoic Acid Sodium Salt]: 239 to 241 °C; `CC(C)n1c(/C=C/[C@@H](O)C[C@@H](O)CC(=O)[O-])c(-c2ccc(F)cc2)c(-c2ccccc2)c1C(N)=O.[Na+]` [Example 160, (3R,5S)-7-[5-Carbamoyl-3-(4-fluoro-phenyl)-1-isopropyl-4-phenyl-1H-pyrrol-2-yl]-3,5-dihydroxy-hept-6-enoic Acid Sodium Salt]: 238 to 240 °C; `CC(C)n1c(CC[C@@H](O)C[C@@H](O)CC(=O)[O-])c(-c2ccc(F)cc2)c(-c2ccccc2)c1C(=O)N[C@@H](C)c1ccccc1.[Na+]` [Example 115, (3R,5R)-7-[3-(4-Fluoro-phenyl)-1-isopropyl-4-phenyl-5-((S)-1-phenyl-ethylcarbamoyl)-1H-pyrrol-2-yl]-3,5-dihydroxy-heptanoic Acid Sodium Salt]: 227 to 229 °C (dec.).
Next, `COc1ccc([C@@H](C)NC(=O)c2c(-c3ccc(F)cc3)c(-c3ccc(F)cc3)c(CC[C@@H](O)C[C@@H](O)CC(=O)[O-])n2C(C)C)cc1.[Na+]` [Example 154, (3R,5R)-7-{3,4-Bis-(4-fluoro-phenyl)-1-isopropyl-5-[(R)-1-(4-methoxy-phenyl)-ethylcarbamoyl]-1H-pyrrol-2-yl}-3,5-dihydroxy-heptanoic Acid Sodium Salt]: 225 to 227 °C.
Regarding `CC(C)n1c(/C=C/[C@@H](O)C[C@@H](O)CC(=O)[O-])c(-c2ccc(F)cc2)c(-c2ccc(F)cc2)c1C(=O)Nc1cccc(Cl)c1.[Na+]` [Example 139, (3R,5S)-7-[5-(3-Chloro-phenylcarbamoyl)-3,4-bis-(4-fluoro-phenyl)-1-isopropyl-1H-pyrrol-2-yl]-3,5-dihydroxy-hept-6-enoic Acid Sodium Salt], the melting point was in the range of 229 to 230 °C.
Under `COC(=O)c1cccc(CNC(=O)c2c(-c3ccccc3)c(-c3ccc(F)cc3)c(/C=C/[C@@H](O)C[C@@H](O)CC(=O)[O-])n2C(C)C)c1.[Na+]` [Example 151, (3R,5S)-7-[3-(4-Fluoro-phenyl)-1-isopropyl-5-(3-methoxycarbonyl-benzylcarbamoyl)-4-phenyl-1H-pyrrol-2-yl]-3,5-dihydroxy-hept-6-enoic Acid Sodium Salt] stands 171 to 174 °C.
The molecule `CC(C)n1c(CC[C@@H](O)C[C@@H](O)CC(=O)[O-])c(-c2ccc(F)cc2)c(-c2ccccc2)c1C(=O)NCCc1ccccc1.[Na+]` [Example 91, (3R,5R)-7-[3-(4-Fluorophenyl)-1-isopropyl-5-(phenethylcarbamoyl)-4-phenyl-1H-pyrrol-2-yl]-3,5-dihydroxyheptanoic Acid Sodium Salt] registered a melting point of 197 to 200 °C.
The molecule `CC(C)n1c(CCC(O)C[C@@H](O)CC(=O)[O-])c(-c2ccc(F)cc2)c(-c2ccccc2)c1C(=O)Nc1ccccc1.[Na+]` (stereo partly drawn) [Example 3, (3R)-7-[3-(4-Fluoro-phenyl)-1-isopropyl-4-phenyl-5-phenylcarbamoyl-1H-pyrrol-2-yl]-3,5-dihydroxy-heptanoic Acid Sodium Salt] came in with a melting point of 240 to 242 °C.
Next, `CC(N)=CC(=O)CNC(=O)c1c(-c2ccccc2)c(-c2ccc(F)cc2)c(CC[C@@H](O)C[C@@H](O)CC(=O)[O-])n1C(C)C.[Na+]` [Example 113, (3R,5R)-7-[5-(4-Amino-2-oxo-pent-3-enylcarbamoyl)-3-(4-fluoro-phenyl)-1-isopropyl-4-phenyl-1H-pyrrol-2-yl]-3,5-dihydroxy-heptanoic Acid, Sodium Salt]: 189 to 193 °C.
As to `Cc1cc(CNC(=O)c2c(-c3ccccc3)c(-c3ccc(F)cc3)c(/C=C/[C@@H](O)C[C@@H](O)CC(=O)[O-])n2C(C)C)no1.[Na+]` [Example 79, trans-(3R,5 S)-7-{3-(4-fluoro-phenyl)-1-isopropyl-5-[(5-methyl-isoxazole-3-yl Methyl)-carbamoyl]-4-phenyl-1H-pyrrol-2-yl}-3,5-dihydroxy-hept-6-enoate Sodium Salt], the melting point is 200 to 203 °C.
Molecule `CC(C)n1c(/C=C/[C@@H](O)C[C@@H](O)CC(=O)O)c(-c2ccc(F)cc2)c(-c2ccc(F)cc2)c1C(=O)Nc1ccc(CC(N)=O)cc1` (as salt: sodium) [Example 14, (3R,5S)-7-[5-(4-Carbamoylmethyl-phenylcarbamoyl)-3,4-bis-(4-fluoro-phenyl)-1-isopropyl-1H-pyrrol-2-yl]-3,5-dihydroxy-hept-6-enoic Acid Sodium Salt] showed a melting point of 220 to 222 °C.
For `COC(=O)C[C@H]1C[C@@H](CCc2c(-c3ccc(F)cc3)c(-c3ccc(F)cc3)cn2C(C)C)OC(C)(C)O1` [Example 24, (4R,6R)-(6-{2-[3,4-Bis-(4-fluoro-phenyl)-1-isopropyl-1H-pyrrol-2-yl]-ethyl}-2,2-dimethyl-[1,3]dioxan-4-yl)-acetic Acid Methyl Ester], the melting point was 55 to 57 °C.
For `CC(C)n1c(CC[C@@H](O)C[C@@H](O)CC(=O)[O-])c(-c2ccc(F)cc2)c(-c2ccccc2)c1C(=O)Nc1cccc(S(N)(=O)=O)c1.[Na+]` [Example 125, (3R,5R)-7-[3-(4-Fluoro-phenyl)-1-isopropyl-4-phenyl-5-(3-sulfamoyl-phenylcarbamoyl)-1H-pyrrol-2-yl]-3,5-dihydroxy-heptanoic Acid Sodium Salt], the melting point is 227 to 229 °C.
On to `CC(C)n1c(/C=C/[C@@H](O)C[C@@H](O)CC(=O)[O-])c(-c2ccc(F)cc2)c(-c2ccc(F)cc2)c1C(=O)Nc1cccc(C(=O)N(C)C)c1.[Na+]` [Example 68, trans-(3R,5S)-7-[5-(3-dimethylcarbamoyl-phenylcarbamoyl)-3,4-bis-(4-fluoro-phenyl)-1-isopropyl-1H-pyrrol-yl]-3,5-dihydroxy-hept-6-enoate Sodium Salt], for which the melting point was 210 to 214 °C.
Next, `Cc1cnc(CNC(=O)c2c(-c3ccccc3)c(-c3ccc(F)cc3)c(CC[C@@H](O)C[C@@H](O)CC(=O)O)n2C(C)C)cn1` (as salt: sodium) [Example 97, (3R,5R)-7-[3-(4-Fluorophenyl)-1-isopropyl-5-[(5-methylpyrazin-2-ylmethyl)carbamoyl]-4-phenyl-1H-pyrrol-2-yl]-3,5-dihydroxyheptanoic Acid Sodium Salt]: 184 to 188 °C; `CC(C)OC(=O)c1ccc(CNC(=O)c2c(-c3ccccc3)c(-c3ccc(F)cc3)c(CC[C@@H](O)C[C@@H](O)CC(=O)[O-])n2C(C)C)cc1.[Na+]` [Example 148, (3R,5R)-7-[3-(4-Fluoro-phenyl)-5-(4-isopropoxycarbonyl-benzylcarbamoyl)-1-isopropyl-4-phenyl-1H-pyrrol-2-yl]-3,5-dihydroxy-heptanoic Acid Sodium Salt]: 199 to 201 °C.
`COc1ccc([C@H](C)NC(=O)c2c(-c3ccc(F)cc3)c(-c3ccc(F)cc3)c(CC[C@@H](O)C[C@@H](O)CC(=O)[O-])n2C(C)C)cc1.[Na+]` [Example 152, (3R,5R)-7-{3,4-Bis-(4-fluoro-phenyl)-1-isopropyl-5-[(S)—I-(4-methoxy-phenyl)-ethylcarbamoyl]-1H-pyrrol-2-yl]-3,5-dihydroxy-heptanoic Acid Sodium Salt] registered a melting point of 227 to 229 °C.
Regarding `COC(=O)c1ccc(NC(=O)c2c(-c3ccc(F)cc3)c(-c3ccc(F)cc3)c(CC[C@@H](O)C[C@@H](O)CC(=O)[O-])n2C(C)C)nc1.[Na+]` [Example 121, (3R,5R)-6-{[5-(6-Carboxy-3,5-dihydroxy-hexyl)-3,4-bis-(4-fluoro-phenyl)-1-isopropyl-1H-pyrrole-2-carbonyl]-amino}-nicotinic Acid Methyl Ester Sodium Salt], the melting point is 178 to 181 °C (dec.).
